Converted amounts (≈) assume the structure as drawn. Like-named read-outs stand apart in the source and are kept apart here.
Key:
[1] = metabolite ID, peak area of substrate or metabolite
[2] = metabolite ID, peak area of substrate or metabolite; remark: listed apart in the source
[3] = tested on: primary peritoneal mouse macrophages (PMM); test: cells; details: Macrophage
in vitro [4] = details: human, microsomes
in vitro [5] = details: mouse, microsomes; for microsomal CLint at 0.5 h, 0.5 µM: pH 7.4, Microsome Clint,u Mouse, Table 2
physchem [6] = details: HPLC, Ascentis Express RP Amide column
in vitro [7] = details: human; for IC50 at 120 h: PMA-differentiated THP-1 cells; for CC50 at 120 h: THP-1 cells differentiated with PMA
[8] = tested on: Leishmania infantum MHOM/MA(BE)/67/ITMAP263 intracellular amastigotes; test: microbe, parasite or virus in culture; details: Macrophage, in Mus musculus
[9] = tested on: Leishmania infantum (MHOM/MA/67/ITMAP-263) intracellular amastigotes in THP-1; test: microbe, parasite or virus in culture
[10] = for improvement in the in vitro mouse clearance: versus the preceding analogue
[11] = 6 h incubation in mouse plasma
in vitro [12] = details: plasma
physchem [13] = test: physchem
Vero = test: cells; details: Chlorocebus sabaeus, read-out: Vero IC50
in vitro [14] = details: human, HepG2 cells
[15] = tested on: L. donovani MHOM/SD/62/1SCL2D intracellular amastigotes; test: microbe, parasite or virus in culture; details: Leishmania donovani, read-out: L. donovani MHOM/SD/62/1SCL2D intracellular amastigotes IC50
[16] = tested on: Leishmania infantum MHOM/MA(BE)/67/ITMAP263 intracellular amastigotes; details: for L. inf. pIC50: intracellular amastigotes in PMM, geometric mean of a minimum of two experiments ± standard error
[17] = tested on: primary peritoneal mouse macrophages (PMM); details: for PMM pIC50: cytotoxicity to PMM, geometric mean of a minimum of two experiments ± standard error
[18] = human liver microsomes
[19] = pH 7.4
[20] = tested on: Trypanosoma cruzi, Tulahuen CL2, beta-galactosidase strain; details: read-out: T. cruzi Tulahuen C4 (LacZ) IC50
MRC-5SV2 cells = test: Cytotoxicity assay on MRC-5SV2 cells (resazurin); details: human, 3 days
[21] = tested on: primary peritoneal mouse macrophages (PMM); test: Cytotoxicity to PMM (microscopic scoring within susceptibility assay); details: Swiss, mouse
in vitro [22] = details: human
in vitro [23] = details: human, HFF-1 cells
in vitro [24] = details: human, HepG2 cells; remark: listed apart in the source
in vitro [25] = details: PAMPA
[26] = tested on: Trypanosoma cruzi, Tulahuen CL2, beta-galactosidase strain; test: microbe, parasite or virus in culture; details: MRC5, read-out: T. cruzi Tulahuen C4 (LacZ) IC50 (uM)
[27] = tested on: Leishmania infantum (MHOM/MA/67/ITMAP-263) intracellular amastigotes in THP-1; details: THP-1 host cells, 120 hours
THP-1 cells = details: 120 hours, Alamar Blue
T. b. brucei (Squib-427) = test: microbe, parasite or virus in culture; details: Trypanosoma brucei, RHODESIENSE
[28] = read-out: PMM pIC50 (converted)
[29] = pH 7.4, elog D, HPLC measured log D, pH 7.4
[30] = read-out: L. inf. pIC50, intracellular amastigotes in PMM (converted), geometric mean of a minimum of two experiments ± standard error
[31] = THP-1, 120 h, read-out: Intracellular activity pIC50 L. inf. in THP-1 (converted)
[32] = pH 7.4, Microsome Clint,u Human, Table 2, intrinsic in vitro clearance, liver microsomes
[33] = intrinsic in vitro clearance, liver microsomes
[34] = pH 7.4, HLM CLint (uL/min/mg), human liver microsomes
[35] = pH 7.4, MLM CLint (uL/min/mg), mouse liver microsomes
[36] = PBS, pH 7.4, aqueous buffer, kinetic from dmso stock
[37] = read-out: L. Inf. pIC50, from L. infantum intracellular amastigote IC50 (converted)
[38] = read-out: L. infantum MHOM/MA(BE)/67/ITMAP263 intracellular amastigotes IC50 (uM), intracellular amastigotes

COc1ccc(C(=O)NC2COC2)cc1S(=O)(=O)N(Cc1ccc(F)cc1)Cc1ccc(F)cc1 [Compound 23]
Area% Mouse [1]: 89.1%
Area% Human [2]: 84.9%
IC50 [3, 28]: > 64.6 µM
microsomal CLint at 0.5 μM (in vitro [4]; pH 7.4, Microsome Clint Human, intrinsic in vitro clearance, liver microsomes): 178 µL/min/mg
microsomal CLint at 0.5 μM (in vitro [5]; pH 7.4, Microsome Clint Mouse, intrinsic in vitro clearance, liver microsomes): 395 µL/min/mg
chromatographic logD (physchem [6]; [29]): 4
IC50 at 120 h (in vitro [7]): > 64.6 µM
IC50 [8, 30]: 0.794 µM
IC50 [9, 31]: 8.51 µM

COc1ccc(OC)c(S(=O)(=O)N(C)Cc2ccc(F)cc2)c1 [Compound 37]
Area% Mouse [1]: 76.1%
Area% Human [2]: 22.5%
IC50 [3, 28]: > 64.6 µM
microsomal CLint at 0.5 μM (in vitro [4]; [32]): 414 µL/min/mg
chromatographic logD (physchem [6]; [29]): 3.7
IC50 [8, 30]: 11.7 µM

COc1ccc(C(=O)N2CCOCC2)cc1S(=O)(=O)N(Cc1ccc(F)cc1)Cc1ccc(C(F)(F)F)nc1 [Compound 46]
improvement in the in vitro mouse clearance [10]: 4 fold
Mouse plasma stability (6 h) [11]: 22 % remaining
IC50 [3, 28]: > 64.6 µM
microsomal CLint at 0.5 h, 0.5 µM (in vitro [4]; [32]): 265 µL/min/mg
microsomal CLint at 0.5 h, 0.5 µM (in vitro [5]; [33]): 534 µL/min/mg
chromatographic logD (physchem [6]; [29]): 3.7
fraction unbound (in vitro [12]; Plasma protein binding (PPB)): 0.041
solubility kinetic (physchem [13]; aqueous medium, pH 2.0, pH 2): 3.8 µg/mL (≈ 6.7 µM)
solubility kinetic (physchem [13]; aqueous medium, pH 7.4, pH 7.4): 3.2 µg/mL (≈ 5.64 µM)
IC50 [8, 30]: 1.74 µM

COc1ccc(C(=O)N2CCOCC2)cc1S(=O)(=O)N(Cc1ccccc1)Cc1cnc(C(F)(F)F)nc1 [Compound 47]
improvement in the in vitro mouse clearance [10]: 4 fold
Mouse plasma stability (6 h) [11]: 42 % remaining
IC50 [3, 28]: > 64.6 µM
microsomal CLint at 0.5 h, 0.5 µM (in vitro [4]; [32]): 73 µL/min/mg
microsomal CLint at 0.5 h, 0.5 µM (in vitro [5]; [33]): 152 µL/min/mg
chromatographic logD (physchem [6]; [29]): 3.5
fraction unbound (in vitro [12]; Plasma protein binding (PPB)): 0.117
solubility kinetic (physchem [13]; aqueous medium, pH 2.0, pH 2): 11.3 µg/mL (≈ 20.5 µM)
solubility kinetic (physchem [13]; aqueous medium, pH 7.4, pH 7.4): 6.2 µg/mL (≈ 11.3 µM)
IC50 at 120 h (in vitro [7]): > 64.6 µM
IC50 [8, 30]: 4.47 µM
IC50 [9, 31]: > 64.6 µM

O=S(=O)(c1ccc2nncn2c1)N(Cc1cccc(F)c1)c1ccc2c(c1)OCO2 [DNDI0003321886]
CC50 at 120 h (in vitro [7]): > 50 µM
IC50 (Vero): 35 µM
CC50 (in vitro [14]): > 50 µM
IC50 [15]: > 50 µM

COc1ccc(CN(c2ccc3c(c2)OCO3)S(=O)(=O)c2ccc3nncn3c2)cc1 [DNDI0003321888]
CC50 at 120 h (in vitro [7]): > 50 µM
IC50 (Vero): > 50 µM
CC50 (in vitro [14]): > 50 µM
IC50 [15]: > 50 µM

COc1ccc(S(=O)(=O)N2Cc3ccccc3CC2C(=O)NCc2ccccc2)cc1 (stereo not shown) [DNDI0003338988]
CC50 at 120 h (in vitro [7]): > 50 µM
IC50 (Vero): 29 µM
CC50 (in vitro [14]): > 50 µM
IC50 [15]: > 50 µM

COc1ccc(C2c3cccn3CCN2S(=O)(=O)c2ccc3ccccc3c2)cc1 (stereo not shown) [DNDI0003355838]
CC50 at 120 h (in vitro [7]): > 50 µM
IC50 (Vero): > 50 µM
CC50 (in vitro [14]): > 50 µM
IC50 [15]: > 50 µM

CC[C@H](Cc1ccccc1)[S+]([O-])c1ccccc1OC (stereo partly shown) [DNDI0003362002]
L. Inf. pIC50 ([16]; from L. infantum intracellular amastigote IC50): 4.45
IC50 ([16]; read-out: L. infantum MHOM/MA(BE)/67/ITMAP263 intracellular amastigotes IC50): 35.3 µM
SI (vs PMM) ([17]; PMM IC50 / L. infantum IC50): 2
HLM CLint [18]: 390 µL/min/mg
MLM CLint ([10]; mouse liver microsomes): 3623 µL/min/mg
eLogD [19]: 3.7
IC50 [20]: 30.8 µM
CC50 (MRC-5SV2 cells): > 64 µM
IC50 [21]: > 64 µM

COc1ccc(C(=O)N2CCOCC2)cc1S(=O)(=O)N(Cc1ccc(F)cc1)Cc1ccc(C(F)(F)F)nc1 [DNDI0003389644]
KS PBS - pH 2 (ug/mL): 3.79 ug/mL
IC50 ([3]; read-out: PMM IC50 (uM)): > 64 µM
microsomal CLint at 0.5 μM (in vitro [4]; [34]): 190 µL/min/mg
microsomal CLint at 0.5 μM (in vitro [5]; [35]): 163 µL/min/mg
fraction unbound (in vitro [12]; PPB (%)): 0.0409
solubility kinetic (physchem [13]; [36]): 3.32 µg/mL (≈ 5.85 µM)
CC50 at 3 days (in vitro [22]): > 64 µM
CC50 (in vitro [23]): 36.9 µM
CC50 (in vitro [24]): > 64 µM
Papp (in vitro [25]): 10 ×10⁻⁶ cm/s
IC50 [8, 37]: 1.74 µM
IC50 [8, 38]: 1.74 µM
IC50 [26]: 3.39 µM

COc1ccc(C(=O)N2CCOCC2)cc1S(=O)(=O)N(Cc1ccccc1)Cc1cnc(C(F)(F)F)nc1 [DNDI0003425509]
KS PBS - pH 2 (ug/mL): 11.3 ug/mL
IC50 ([3]; read-out: PMM IC50 (uM)): > 64 µM
microsomal CLint at 0.5 μM (in vitro [4]; [34]): 76 µL/min/mg
microsomal CLint at 0.5 μM (in vitro [5]; [35]): 78 µL/min/mg
chromatographic logD (physchem [6]; pH 7.4, eLogD, experimental): 3.1
fraction unbound (in vitro [12]; PPB (%)): 0.117
solubility kinetic (physchem [13]; [36]): 6.22 µg/mL (≈ 11.3 µM)
CC50 at 120 h (in vitro [7]): > 64 µM
CC50 at 3 days (in vitro [22]): > 64 µM
CC50 (in vitro [23]): > 64 µM
CC50 (in vitro [24]): > 64 µM
Papp (in vitro [25]): 15.2 ×10⁻⁶ cm/s
IC50 [8, 37]: 4.37 µM
IC50 [8, 38]: 4.35 µM
IC50 ([9]; THP-1, read-out: L. infantum MHOM/MA/67/ITMAP263 intracellular amastigotes THP-1 cells IC50 (uM)): > 64 µM
IC50 [26]: 7.07 µM

COc1ccc(OC)c(S(=O)(=O)N(Cc2ccc(F)cc2)Cc2oc(C)nc2C)c1 [SI51]
L. inf. pIC50 [16]: 5.63±0.04
PMM pIC50 [17]: < 4.19
Intracellular activity pIC50 L. inf. in THP-1 [27]: 4.51±0.03
pIC50 Cytotoxicity THP-1 (THP-1 cells): < 4.19

COc1ccc(S(C)(=O)=O)cc1S(=O)(=O)N(Cc1ccccc1)CC(C)(C)C [SI52]
L. inf. pIC50 [16]: 5.56±0.28
PMM pIC50 [17]: < 4.19
Intracellular activity pIC50 L. inf. in THP-1 [27]: 4.32±0.01
pIC50 Cytotoxicity THP-1 (THP-1 cells): < 4.19

Cc1ccc(C(=O)Nc2ccc(S(=O)(=O)O)c3cc(S(=O)(=O)O)cc(S(=O)(=O)O)c23)cc1NC(=O)c1cccc(NC(=O)Nc2cccc(C(=O)Nc3cc(C(=O)Nc4ccc(S(=O)(=O)O)c5cc(S(=O)(=O)O)cc(S(=O)(=O)O)c45)ccc3C)c2)c1 [Suramin]
IC50 (T. b. brucei (Squib-427)): ~0.05 µM

Reference: PMC8126888 (RSC Medicinal Chemistry, 2020)
